PubChem BioAssay (NCI)
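The compound was tested at five concentrations on cells cultured in 96-well plates, with a 48-hour exposure period. TGI is the concentration that stops growth completely.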

How the values were obtained:
Assay in all cases: NCI tumour cell line growth inhibition, 48 h
[1] = system: 786-0 renal
[2] = system: A498 renal
[3] = system: A549 NSCLC
[4] = system: ACHN renal
[5] = system: BT-549 breast
[6] = system: CAKI-1 renal
[7] = system: CCRF-CEM leukemia
[8] = system: COLO 205 colon
[9] = system: DU-145 prostate
[10] = system: EKVX NSCLC
[11] = system: HCC-2998 colon
[12] = system: HCT-116 colon
[13] = system: HCT-15 colon
[14] = system: HL-60(TB) leukemia
[15] = system: HOP-62 NSCLC
[16] = system: HOP-92 NSCLC
[17] = system: HS 578T breast
[18] = system: HT29 colon
[19] = system: IGROV1 ovarian
[20] = system: K-562 leukemia
[21] = system: KM12 colon
[22] = system: LOX IMVI melanoma
[23] = system: M14 melanoma
[24] = system: MALME-3M melanoma
[25] = system: MCF7 breast
[26] = system: MDA-MB-231 breast
[27] = system: MDA-MB-435
[28] = system: MDA-N
[29] = system: MOLT-4 leukemia
[30] = system: NCI-H226 lung
[31] = system: NCI-H23 lung
[32] = system: NCI-H460 lung
[33] = system: NCI-H522 lung
[34] = system: OVCAR-3 ovarian
[35] = system: OVCAR-5 ovarian
[36] = system: OVCAR-8 ovarian
[37] = system: PC-3 prostate
[38] = system: RPMI-8226 leukemia
[39] = system: RXF 393 renal
[40] = system: SF-268 CNS
[41] = system: SF-295 CNS
[42] = system: SF-539 CNS
[43] = system: SK-MEL-2 melanoma
[44] = system: SK-MEL-28 melanoma
[45] = system: SK-MEL-5 melanoma
[46] = system: SK-OV-3 ovarian
[47] = system: SN12C renal
[48] = system: SNB-19 CNS
[49] = system: SNB-75 CNS
[50] = system: SR leukemia
[51] = system: SW-620 colon
[52] = system: T-47D breast
[53] = system: TK-10 renal
[54] = system: U251 CNS
[55] = system: UACC-257 melanoma
[56] = system: UACC-62 melanoma
[57] = system: UO-31 renal
[58] = system: NCI/ADR-RES ovarian
[59] = system: OVCAR-4 ovarian

## COc1ccc(NC2Oc3cc4c(cc3C(c3cccc(OC)c3OC)C2C)OCO4)cc1 (configuration not stated)
[1]
  TGI: > 100 µM
[2]
  TGI: 71.1 µM
[3]
  TGI: > 100 µM
[4]
  TGI: > 100 µM
[5]
  TGI: > 100 µM
[6]
  TGI: > 100 µM
[7]
  TGI: 47.1 µM
[8]
  TGI: 19.2 µM
[9]
  TGI: > 100 µM
[10]
  TGI: > 100 µM
[11]
  TGI: > 100 µM
[12]
  TGI: 16.3 µM
[13]
  TGI: > 100 µM
[14]
  TGI: 10.9 µM
[15]
  TGI: > 100 µM
[16]
  TGI: 25.1 µM
[17]
  TGI: 61.5 µM
[18]
  TGI: > 100 µM
[19]
  TGI: > 100 µM
[20]
  TGI: 70.6 µM
[21]
  TGI: > 100 µM
[22]
  TGI: > 100 µM
[23]
  TGI: > 100 µM
[24]
  TGI: 82.3 µM
[25]
  TGI: > 100 µM
[26]
  TGI: > 100 µM
[27]
  TGI: 43.1 µM
[28]
  TGI: > 100 µM
[29]
  TGI: 35.9 µM
[30]
  TGI: > 100 µM
[31]
  TGI: 79.5 µM
[32]
  TGI: > 100 µM
[33]
  TGI: > 100 µM
[34]
  TGI: > 100 µM
[35]
  TGI: > 100 µM
[36]
  TGI: > 100 µM
[37]
  TGI: 51.3 µM
[38]
  TGI: > 100 µM
[39]
  TGI: 50.2 µM
[40]
  TGI: > 100 µM
[41]
  TGI: 32.3 µM
[42]
  TGI: > 100 µM
[43]
  TGI: 70.2 µM
[44]
  TGI: 85.7 µM
[45]
  TGI: 56 µM
[46]
  TGI: > 100 µM
[47]
  TGI: > 100 µM
[48]
  TGI: > 100 µM
[49]
  TGI: > 100 µM
[50]
  TGI: 12 µM
[51]
  TGI: > 100 µM
[52]
  TGI: > 100 µM
[53]
  TGI: > 100 µM
[54]
  TGI: > 100 µM
[55]
  TGI: 69.2 µM
[56]
  TGI: > 100 µM
[57]
  TGI: > 100 µM

## O=C(Cn1c2c(c3ccccc31)CCCC2)NC1CCCCC1
[1]
  TGI: > 100 µM
[2]
  TGI: > 100 µM
[3]
  TGI: > 100 µM
[4]
  TGI: > 100 µM
[5]
  TGI: > 100 µM
[6]
  TGI: > 100 µM
[7]
  TGI: > 100 µM
[8]
  TGI: > 100 µM
[10]
  TGI: > 100 µM
[11]
  TGI: > 100 µM
[12]
  TGI: > 100 µM
[13]
  TGI: > 100 µM
[14]
  TGI: > 100 µM
[15]
  TGI: > 100 µM
[17]
  TGI: > 100 µM
[18]
  TGI: > 100 µM
[19]
  TGI: > 100 µM
[20]
  TGI: > 100 µM
[22]
  TGI: > 100 µM
[23]
  TGI: > 100 µM
[24]
  TGI: > 100 µM
[25]
  TGI: > 100 µM
[27]
  TGI: > 100 µM
[28]
  TGI: > 100 µM
[31]
  TGI: > 100 µM
[32]
  TGI: > 100 µM
[58]
  TGI: > 100 µM
[34]
  TGI: > 100 µM
[59]
  TGI: > 100 µM
[35]
  TGI: > 100 µM
[36]
  TGI: > 100 µM
[37]
  TGI: > 100 µM
[38]
  TGI: > 100 µM
[40]
  TGI: > 100 µM
[41]
  TGI: > 100 µM
[42]
  TGI: > 100 µM
[43]
  TGI: > 100 µM
[44]
  TGI: > 100 µM
[45]
  TGI: > 100 µM
[46]
  TGI: > 100 µM
[47]
  TGI: > 100 µM
[48]
  TGI: > 100 µM
[51]
  TGI: > 100 µM
[53]
  TGI: > 100 µM
[55]
  TGI: > 100 µM
[56]
  TGI: > 100 µM
[57]
  TGI: > 100 µM

## Nc1c2c(nc3ccccc13)CCCCCC2
[1]
  TGI: 30 µM
[2]
  TGI: 74 µM
[4]
  TGI: 86.3 µM
[5]
  TGI: > 100 µM
[7]
  TGI: 52.4 µM
[8]
  TGI: 30.6 µM
[11]
  TGI: 27.4 µM
[12]
  TGI: 64.1 µM
[13]
  TGI: > 100 µM
[14]
  TGI: 31.6 µM
[16]
  TGI: 32.1 µM
[17]
  TGI: > 100 µM
[19]
  TGI: > 100 µM
[20]
  TGI: 69 µM
[22]
  TGI: 31.8 µM
[24]
  TGI: 32.6 µM
[25]
  TGI: > 100 µM
[26]
  TGI: 42.5 µM
[28]
  TGI: 30.4 µM
[29]
  TGI: 85 µM
[30]
  TGI: > 100 µM
[31]
  TGI: > 100 µM
[32]
  TGI: 38.9 µM
[33]
  TGI: 56.3 µM
[58]
  TGI: > 100 µM
[36]
  TGI: > 100 µM
[37]
  TGI: > 100 µM
[38]
  TGI: 43.8 µM
[40]
  TGI: > 100 µM
[42]
  TGI: 32.3 µM
[43]
  TGI: 29.2 µM
[44]
  TGI: 30 µM
[45]
  TGI: 31.3 µM
[47]
  TGI: > 100 µM
[50]
  TGI: 38 µM
[51]
  TGI: 50.1 µM
[53]
  TGI: 35.1 µM
[54]
  TGI: 80.2 µM
[55]
  TGI: 31.1 µM
[56]
  TGI: 33.7 µM

## NCCCN(CCCCN(CCCN)Cc1ccc2ccccc2c1)Cc1ccc2ccccc2c1
[2]
  TGI: 5.06 µM
[3]
  TGI: 3.2 µM
[4]
  TGI: 3.3 µM
[5]
  TGI: 3.89 µM
[6]
  TGI: 3.15 µM
[7]
  TGI: > 100 µM
[8]
  TGI: 5.22 µM
[10]
  TGI: 3.37 µM
[11]
  TGI: 9.37 µM
[13]
  TGI: 13.1 µM
[14]
  TGI: > 100 µM
[16]
  TGI: 5.75 µM
[17]
  TGI: 3.06 µM
[18]
  TGI: 3.11 µM
[19]
  TGI: 3.3 µM
[20]
  TGI: > 100 µM
[21]
  TGI: 3.32 µM
[23]
  TGI: 3.63 µM
[24]
  TGI: 3.39 µM
[26]
  TGI: 11.8 µM
[27]
  TGI: 4.27 µM
[28]
  TGI: 3.3 µM
[29]
  TGI: 4.74 µM
[31]
  TGI: 3.34 µM
[32]
  TGI: 3.43 µM
[58]
  TGI: 54.3 µM
[59]
  TGI: 4.09 µM
[35]
  TGI: 3.44 µM
[38]
  TGI: 6.88 µM
[40]
  TGI: 2.57 µM
[41]
  TGI: 3.7 µM
[46]
  TGI: 3.39 µM
[47]
  TGI: 3.08 µM
[48]
  TGI: 2.86 µM
[49]
  TGI: 3.89 µM
[52]
  TGI: 5.03 µM
[53]
  TGI: 5.05 µM
[57]
  TGI: 6.1 µM
